US20190195897A1, “GLYCOSYLATED METABOLITES” (UNIVERSITEIT LEIDEN, priority 2015, published 2019)

How the values were obtained:
[1] = target: T1, recombinant GBA1 (rGBA1, Cerezyme) (Homo sapiens, UniProt P04062, R534H); assay: Degradation of GlcChol by rGBA1; assay type: biochemical
T1 construct: purchased Genzyme (Genzyme Nederland, Naarden, The Netherlands)
T1 sequence (P04062 40-536 R534H): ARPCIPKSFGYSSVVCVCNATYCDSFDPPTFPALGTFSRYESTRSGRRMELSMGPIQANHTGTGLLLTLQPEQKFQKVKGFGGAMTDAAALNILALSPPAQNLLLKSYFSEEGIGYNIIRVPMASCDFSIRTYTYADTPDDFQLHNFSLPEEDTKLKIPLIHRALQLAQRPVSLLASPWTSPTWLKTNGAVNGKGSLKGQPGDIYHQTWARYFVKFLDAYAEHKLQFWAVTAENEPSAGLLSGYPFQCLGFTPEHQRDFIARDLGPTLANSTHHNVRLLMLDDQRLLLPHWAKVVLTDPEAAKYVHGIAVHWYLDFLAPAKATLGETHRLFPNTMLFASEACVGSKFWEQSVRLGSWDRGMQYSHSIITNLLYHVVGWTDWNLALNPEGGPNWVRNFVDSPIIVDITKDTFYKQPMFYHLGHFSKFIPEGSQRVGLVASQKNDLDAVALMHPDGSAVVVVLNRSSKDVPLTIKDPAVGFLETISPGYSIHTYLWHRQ
Procedure: FIG. 1D: Linearity of GlcChol quantification and its complete digestion with rGBAl. (5 IU) for 60 min at 37 C.
The physiological significance of glucosylation of cholesterol is hypothetically great since it renders the molecule far more water soluble. To establish whether GlcChol physiologically occurs in mammals, firstly a LC-MS/MS procedure was developed for its quantitative detection. For this purpose, a ^13C-isotope labeled cholesterolglucoside was synthesized to be used as internal standard in sensitive quantitative detection of GlcChol by LC-MS/MS. The use of the isotope labeled compound as internal standard avoids the need for corrections for extraction efficiency, chromatographic behavior and ionization efficiency, during quantification GlcChol. […] The limit of detection (LOD) was 0.5 pmol/mL plasma, with a signal to noise ratio of 3 and a limit of quantitation (LOQ) of 0.9 pmol/mL plasma with a signal to noise ratio of 10.
Both GBA and GBA2, but not GBA3, are able to degrade by hydrolysis as well as synthesize GlcChol at conditions optimal for degradation of 4MU-8-glucoside (FIG. 1D; supplemental Table 1). […] This ability of the several GBA's to hydrolyze as well as synthesize GlcChol was studied in vitro using 25-NBD-cholesterol as acceptor and detection of 25-NBD-glucoside formation by TLC and fluorescence scanning. […]

GBA2 = target: T2, GBA2 (Mus musculus, UniProt Q69ZF3); assay: Degradation of GlcChol by GBA2; assay type: biochemical, murine; settings: GBA2, input 18 nmol 4MU-β-Glc hydrolysis per ml/h
T2 construct: Myc-His (C); expressed in transfected cells; host or cells: COS-7 cells, used as homogenate/lysate
T2 sequence (Q69ZF3 1-918): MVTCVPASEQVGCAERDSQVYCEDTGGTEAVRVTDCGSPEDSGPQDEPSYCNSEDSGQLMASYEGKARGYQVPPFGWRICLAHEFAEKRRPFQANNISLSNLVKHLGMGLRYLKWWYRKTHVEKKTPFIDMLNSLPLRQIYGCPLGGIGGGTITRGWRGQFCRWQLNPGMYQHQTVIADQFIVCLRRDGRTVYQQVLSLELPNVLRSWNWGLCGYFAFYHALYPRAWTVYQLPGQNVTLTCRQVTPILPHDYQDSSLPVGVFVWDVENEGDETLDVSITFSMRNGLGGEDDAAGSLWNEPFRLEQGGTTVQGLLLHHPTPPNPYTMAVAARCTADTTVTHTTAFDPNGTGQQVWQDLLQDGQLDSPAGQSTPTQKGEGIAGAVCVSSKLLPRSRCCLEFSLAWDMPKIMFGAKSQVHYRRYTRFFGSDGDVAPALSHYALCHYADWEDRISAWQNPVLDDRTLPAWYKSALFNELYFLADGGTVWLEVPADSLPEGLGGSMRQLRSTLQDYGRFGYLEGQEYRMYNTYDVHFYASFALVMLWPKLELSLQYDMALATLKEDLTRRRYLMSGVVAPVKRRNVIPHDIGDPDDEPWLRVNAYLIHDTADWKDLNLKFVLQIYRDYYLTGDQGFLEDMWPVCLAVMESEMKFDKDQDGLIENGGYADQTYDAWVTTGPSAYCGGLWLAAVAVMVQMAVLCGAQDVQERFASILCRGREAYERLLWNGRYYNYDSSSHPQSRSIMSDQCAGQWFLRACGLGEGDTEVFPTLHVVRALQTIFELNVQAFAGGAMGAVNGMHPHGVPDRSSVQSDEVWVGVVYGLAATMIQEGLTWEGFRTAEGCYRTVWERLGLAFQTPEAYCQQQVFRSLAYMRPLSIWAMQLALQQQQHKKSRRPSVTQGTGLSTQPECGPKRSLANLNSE
Excerpt: Both GBA and GBA2, but not GBA3, are able to degrade by hydrolysis as well as synthesize GlcChol at conditions optimal for degradation of 4MU-8-glucoside (FIG. 1D; supplemental Table 1). […] This ability of the several GBA's to hydrolyze as well as synthesize GlcChol was studied in vitro using 25-NBD-cholesterol as acceptor and detection of 25-NBD-glucoside formation by TLC and fluorescence scanning. As source of enzyme rGBA1 was used and GBA2 and GBA3 were individually overexpressed in COST-cells. Overexpression of enzymes was checked by measuring enzymatic activity with appropriate assays and visualization of enzymes with the broad-specificity β-glucopyranosyl cyclophellitolaziridine-type ABP (38). rGBA1 and lysates of GBA2 and GBA3 overexpressing cells were incubated with natural glucosylceramide (C16:0-GloCer or C18:1-GlcCer) as donors and 25-NBD-cholesterol as acceptor. […]
Homogenates of COS-7 cells overexpressing GBA2 and/or GCS, were analyzed for enzymatic activity of GBA2 using artificial 4MU-Glc substrate as earlier described (38). […] The reaction was terminated by addition of 1.25 mL stop-buffer (0.3 M Glycine/NaOH, pH 10.6) and the released 4MU was measured with a LS55 Fluorescence Spectrometer (Perkin-Elmer, Waltham, Mass., USA).

CC(C)CCC[C@@H](C)[C@H]1CC[C@H]2[C@@H]3CC=C4C[C@@H](O[C@@H]5O[C@H](CO)[C@@H](O)[C@H](O)[C@H]5O)CC[C@]4(C)[C@H]3CC[C@]12C [GlcChol, 1-O-cholesteryl-β-D-glucopyranoside]
substrate for recombinant GBA1 ([1]; even at sub-optimal conditions (absence of Triton-X-100 and sodium taurocholate)): excellent substrate
Percentage digestion GlcChol after 1 h (10 nmole) ([1]; rGBA1, input 15 nmol 4MU-β-Glc hydrolysis per ml/h): 95%
Percentage digestion GlcChol after 1 h (10 nmole) (GBA2): 83%
